Measured values: patent US7973219B2, “Method for producing transgenic plants resistant to weed control compounds which disrupt the porphyrin pathways of plants” (Sumitomo Chemical Company, Limited, priority 1998, dated 2011)
Where two headings read alike, the source gives them in different places.

Legend:
[1] = test system: tobacco into which bchH gene was introduced; assay: Leaf piece chlorophyll test, tobacco into which bchH gene was introduced; assay type: in vivo; settings: 0.3 ppm, Table 4; for activity at 0.3 ppm: Nicotiana tabacum, 168 h, 7 days in light, treated vs untreated leaf pieces, read-out: Resistant level to test compound; for Total chlorophyll content treated-leaf: leaf pieces 7 days in light place
Description: Then, according to the method described in Manual for Gene Manipulation of Plant (by Hirofumi UCHIMIYA, Kodan-sha Scientific, 1992), the gene was introduced into tobacco. Agrobacterium strain bearing plasmid pBIBCH was cultured at 28° C. overnight in LB medium and then leaf pieces of tobacco cultured sterilely were dipped in the liquid culture medium. The leaf pieces were cultured at room temperature for 2 days in Murashige-Skoog medium (MS-medium, described in Murasige T. and Skoog F., Physiol. Plant. (1962) 15, p 473) containing 0.8% agar, 0.1 mg/liter naphthalene acetic acid and 1.0 mg/liter benzyl aminopurine. Then, the leaf pieces were washed with sterilized water and cultured for 7 days on MS medium containing 0.8% agar, 0.1 mg/liter naphthalene acetic acid, 1.0 mg/liter benzyl aminopurine and 500 μg/ml cefotaxime. The leaf pieces were transplanted onto MS medium containing 0.8% agar, 0.1 mg/liter naphthalene acetic acid, 1.0 mg/liter benzyl aminopurine, 500 μg/ml cefotaxime and 100 μg/ml kanamycin (hereinafter referred to as selective MS medium) and cultured on the medium continuously for 4months with transplanting the tobacco leaf pieces onto fresh selective MS medium every 1 month. During culture, stem-leaf differentiated shoots were appeared from the tobacco leaf pieces, these shoots were transplanted to MS medium containing 0.8% agar, 300 μg/ml cefotaxime and 50 μg/ml kanamycin to induce roots to obtain regenerated plants. The resultant regenerated plant was transplanted and cultured on MS medium 0.8% agar and 50 μg/ml kanamycin to obtain tobacco plant into which bchH gene was introduced. Similarly, tobacco leaf pieces were infected with Agrobacterium strain bearing pNO to obtain regenerated plant from the tobacco leaf pieces and tobacco plant (hereinafter referred to as control recombinant tobacco).
(§1) The tobacco leaves into which bchH gene was introduced and control recombinant tobacco leaves obtained in Example 5 were collected and each leaf was divided into the right and left equivalent pieces along the main vein, respectively. To one piece was applied an aqueous solution containing 0.3 ppm PPO inhibitory-type herbicidal compound of Structure 8, while, to the other piece was not applied the compound. These leaf pieces were placed on MS medium containing 0.8% agar and allowed to stand at room temperature for 7 days in light place. Then, each leaf piece was ground with pestle and mortar in 5 ml of 80% aqueous acetone solution to extract chlorophyll. The extract liquid was diluted with 80% aqueous acetone solution and the absorbance was measured at 750 nm, 663 nm and 645 nm to calculate total chlorophyll content according to the method described by Macknney G., J. Biol. Chem. (1941) 140, p 315. The results obtained from 4 clones of tobacco into which bchH gene was introduced (BCH1 to 4) and control recombinant tobacco is shown in Table 4. In the table, the resistant level to the herbicidal compound was represented by percentages of the total chlorophyll content of leaf pieces treated with herbicidal compound to that of untreated leaf pieces.
The tobacco clone into which bchH gene was introduced and control recombinant tobacco were also treated in the same manner with the solution containing PPO inhibitory-type herbicidal compound represented by the above Structure 3, 7, 10, 11, 13, 17, 23, 24, 25, 27, 28, 30 or 35, and the resistant level to each herbicidal compound was measured. In the table, the resistant levels to the herbicidal compound were represented by percentages of the total chlorophyll content of leaf pieces treated with the herbicidal compound to that of untreated leaf pieces.

[2] = test system: tobacco introduced with the gene encoding the variant soybean PPO; assay: Leaf piece chlorophyll test, tobacco with gene encoding variant soybean PPO; assay type: in vivo; settings: Table 8; for Resistant level to test compound: same manner as Example 6 (0.3 ppm), treated vs untreated leaf pieces; for Total chlorophyll content treated-leaf: same manner as Example 6 (0.3 ppm, 7 days in light)
From the text: as §1
Leaf pieces of tobacco cultured sterilely were infected with the Agrobacterium strain and, according to the same manner as in Example 5, tobacco into which the gene encoding the variant soybean PPO was introduced was obtained.
The level of resistance to PPO inhibitory type herbicidal compound represented by Structure 8 was confirmed quantitatively by testing tobacco into which the gene encoding the variant soybean PPO prepared in Example 13 was introduced according to the same manner as in Example 6. The results obtained from 4 clones (GMP 1-4) of tobacco introduced with the gene encoding the variant soybean PPO and control recombinant tobacco are shown in Table 8. In the table, the resistant level to herbicidal compound is represented by percentage of the total chlorophyll content of leaf pieces treated with the herbicidal compound to that of untreated leaf pieces.

Compound `C#CCOc1cc(N2C(=O)C3=C(CCCC3)C2=O)c(F)cc1Cl` [Structure 8] has an activity at 0.3 ppm ([1]; clone BCH-1) of 126%, an activity at 0.3 ppm ([1]; clone BCH-2) of 104% and an activity at 0.3 ppm ([1]; clone BCH-3) of 81.3%. The activity at 0.3 ppm ([1]; clone BCH-4) was 70.2%, the “Total chlorophyll content treated-leaf” value ([1]; clone BCH-1) was 1.70 mg/g-fresh weight and the “Total chlorophyll content treated-leaf” value ([1]; clone BCH-2) was 2.14 mg/g-fresh weight. For the same compound, the “Total chlorophyll content treated-leaf” value ([1]; clone BCH-3) was 1.57 mg/g-fresh weight, the “Total chlorophyll content treated-leaf” value ([1]; clone BCH-4) was 1.06 mg/g-fresh weight and the “Resistant level to test compound” value ([2]; clone GMP-1) was 135%. For the same compound, the “Total chlorophyll content treated-leaf” value ([2]; clone GMP-1) was 2.55 mg/g-fresh weight, the “Resistant level to test compound” value ([2]; clone GMP-2) was 108% and the “Total chlorophyll content treated-leaf” value ([2]; clone GMP-2) was 0.96 mg/g-fresh weight. The “Resistant level to test compound” value ([2]; clone GMP-3) was 99.3%, the “Total chlorophyll content treated-leaf” value ([2]; clone GMP-3) was 1.49 mg/g-fresh weight and the “Resistant level to test compound” value ([2]; clone GMP-4) was 80.4%. For the same compound, the “Total chlorophyll content treated-leaf” value ([2]; clone GMP-4) was 2.34 mg/g-fresh weight.
